Marks after values point to notes of the source that are not given here.
Tests used:
Assay type in all cases: in vivo
[1] = tested on: cerebral hemorrhage model in wild-type AB strain zebrafish; assay: Simvastatin-induced cerebral hemorrhage model in zebrafish (incidence); conditions: icariin 30 μM; for Incidence of cerebral hemorrhage: model control 83%
Protocol: 1 dpf wild-type AB strain zebrafish was administered with an aqueous simvastatin solution (0.5 μM) for 18 hours to establish a cerebral hemorrhage model in zebrafish. 180 wild-type AB strain zebrafishes at 1 day post fertilization (1 dpf) were randomly selected and put in a six-well plate, 30 per well (experiment group). Simvastatin was used to induce a cerebral hemorrhage model in zebrafish. Aqueous MS-SOD solutions with concentrations of 222, 667 and 2000 μg/mL were administrated respectively, the concentration of positive control drug icariin was 30 μM, and the normal control group and the model control group were set at the same time. The volume of each well was 3 mL. After 18 hours of co-treatment with MS-SOD and simvastatin, 30 zebrafishes from each group were selected and observed under a microscope, photos were taken and saved. The number of zebrafish with cerebral hemorrhage was counted, and the incidence of cerebral hemorrhage in zebrafish of each experiment group was calculated.

[2] = tested on: cerebral hemorrhage model in wild-type AB strain zebrafish; assay: Movement velocity in simvastatin-induced cerebral hemorrhage model in zebrafish; conditions: icariin 30 μM (Table 3 prints 25 μg/mL); for Movement velocity (mean ± SE): n = 10, model control 80, normal control 198 mm/s
Protocol: 5 dpf wild-type AB strain zebrafish was administered with an aqueous simvastatin solution (0.5 μM) for 18 hours to establish a cerebral hemorrhage model in zebrafish. 180 wild-type AB strain zebrafishes at 5 days post fertilization (5 dpf) were randomly selected and put in a six-well plate, 30 per well (experiment group). Aqueous MS-SOD solutions with concentrations of 222, 667 and 2000 μg/mL were administrated respectively, the concentration of positive control drug icariin was 30 μM, and the normal control group and the model control group were set at the same time. The volume of each well was 3 mL. After treatment of zebrafishes with samples for 4 hours, except for the normal control group, the other experiment groups were treated with simvastatin for 18 hours to establish the cerebral hemorrhage model. After the treatment, 10 zebrafishes from each group were randomly selected to measure the movement velocity (V) of zebrafish using a behavioral analyzer. The statistical significance of the movement velocity was used to evaluate the behavioral improvement effect of MS-SOD on cerebral hemorrhage. The formula of the behavioral improvement effect of MS-SOD on cerebral hemorrhage was as follows: [formula] Statistical analysis was performed using variance analysis and Dunnett's T-test, and p<0.05 indicated a significant difference.

[3] = tested on: cerebral hemorrhage model in wild-type AB strain zebrafish; assay: Blood flow volume in simvastatin-induced cerebral hemorrhage model in zebrafish; conditions: icariin 30 μM; for Blood flow volume (mean ± SE): n = 10, model control 0.13, normal control 0.30 nL/s
Protocol: 3 dpf wild-type AB strain zebrafish was administered with an aqueous simvastatin solution (0.5 μM) for 18 hours to establish a cerebral hemorrhage model in zebrafish. 180 wild-type AB strain zebrafishes at 3 days post fertilization (3 dpf) were randomly selected and put in a six-well plate, 30 per well (experiment group). Aqueous MS-SOD solutions with concentrations of 222, 667 and 2000 μg/mL were administrated respectively, the concentration of positive control drug icariin was 30 μM, and the normal control group (the zebrafishes were treated with water for fish) and the model control group were set at the same time. The volume of each well was 3 mL. After treatment of zebrafishes with samples for 4 hours, except for the normal control group, the other experiment groups were treated with simvastatin for 18 hours to establish the cerebral hemorrhage model. After the treatment, 10 zebrafishes from each group were randomly selected and placed in a heart rate and blood flow analysis system to record blood flow video of zebrafish, and analyze the blood flow volume (O) of zebrafish. The statistical significance of the blood flow volume was used to evaluate the improvement effect of MS-SOD on blood flow volume of cerebral hemorrhage. The formula of the improvement effect of MS-SOD on blood flow volume of cerebral hemorrhage was as follows: [formula] Statistical analysis was performed using variance analysis and Dunnett's T-test, and p<0.05 indicated a significant difference. 4.

[4] = tested on: cerebral ischemia model in Albino strain zebrafish; assay: Ponatinib-induced cerebral ischemia model in zebrafish; conditions: aspirin 50 μg/mL; for Incidence of cerebral ischemia: model control 100%
Protocol: Melanin allele mutated Albino strain zebrafish at 2 days post fertilization (2 dpf) was administered with an aqueous ponatinib solution (1 μg/mL) for 18 hours to establish a cerebral ischemia model in zebrafish. 180 melanin allele mutated Albino strain zebrafishes at 2 days post fertilization (2 dpf) were randomly selected. 30 zebrafishes were treated in each well (experiment group), and aqueous MS-SOD solutions with concentrations of 222, 667 and 2000 μg/mL were administrated respectively, the concentration of positive control drug aspirin was 50 μg/m L, and the normal control group and the model control group were set at the same time. The volume of each well was 3 mL. After MS-SOD treatment for a period of time, except for the normal control group, all the other experiment groups were simultaneously administrated with aqueous ponatinib solution to induce the cerebral ischemia model in zebrafish. After 18 hours of co-treatment with MS-SOD and ponatinib, 20 fish were randomly selected from each well and stained with o-Dianisidine. After staining, photos were taken and data were collected to count the number of zebrafish with cerebral ischemia and calculate the incidence of cerebral ischemia in zebrafish of each experiment group.

Row | Compound | Improvement effect on cerebral hemorrhage [1] | Number of zebrafish with cerebral hemorrhage ([1]; n = 30) | Incidence of cerebral hemorrhage ([1]; n = 30) | Incidence of cerebral hemorrhage ([1]; n = 30, listed as icariin) [%] | Improvement effect on cerebral hemorrhage ([1]; listed as icariin) [%] | Movement improvement effect [2] | Movement velocity (mean ± SE) [2] [mm/s] | Movement velocity (mean ± SE) ([2]; listed as icariin) [mm/s] | Movement improvement effect ([2]; listed as icariin) [%] | Blood flow volume improvement effect [3] [%] | Blood flow volume (mean ± SE) [3] [nL/s] | Blood flow volume (mean ± SE) ([3]; listed as icariin) [nL/s] | Improvement effect on cerebral ischemia [4] | Number of zebrafish with cerebral ischemia ([4]; n = 20) | Incidence of cerebral ischemia ([4]; n = 20) | Incidence of cerebral ischemia ([4]; n = 20, listed as aspirin) [%] | Improvement effect on cerebral ischemia ([4]; listed as aspirin) [%]
1 | COc1ccc(-c2oc3c(CC=C(C)C)c(O[C@@H]4O[C@H](CO)[C@@H](O)[C@H](O)[C@H]4O)cc(O)c3c(=O)c2O[C@@H]2O[C@@H](C)[C@H](O)[C@@H](O)[C@H]2O)cc1 [Icariin, icariin, reference compound] | 32* % | 17 | 56* % | 57 | 32 | 22* % | 106 ± 7 | 106 | 22 | 29 | 0.18 ± 0.025 | 0.18 | – | – | – | – | –
2 | CC(=O)Oc1ccccc1C(=O)O [Aspirin, aspirin, reference compound] | – | – | – | – | – | – | – | – | – | – | – | – | 65*** % | 7 | 35*** % | 35 | 65

— patent US20220168400A1, “USE OF A MANGANESE SUPEROXIDE DISMUTASE WITH HIGH STABILITY IN THE PREVENTION OR TREATMENT OF CEREBRAL STROKE” (CARRY HEALTH BIOPHARMACEUTICALS (HANGZHOU) CO., LTD., priority 2019, published 2022)
